# Experimental data reported in publication PMC11236999, “Antagonism of propofol anesthesia by alkyl-fluorobenzene derivatives” (Scientific Reports, 2024).
# Entries after “also recorded” stand apart in the source; their conditions may differ.
# What was measured:
# [1] = biological target: T1, horse spleen apoferritin (HSAF) (Equus caballus, UniProt P02791); assay: 1-Aminoanthracene (1-AMA) competition fluorescence assay; format: binding
# T1 construct: model protein HSAF (horse spleen apoferritin); purchased Sigma-Aldrich; host or cells: horse spleen (tissue-derived)
# T1 sequence (P02791 2-175 limits assumed): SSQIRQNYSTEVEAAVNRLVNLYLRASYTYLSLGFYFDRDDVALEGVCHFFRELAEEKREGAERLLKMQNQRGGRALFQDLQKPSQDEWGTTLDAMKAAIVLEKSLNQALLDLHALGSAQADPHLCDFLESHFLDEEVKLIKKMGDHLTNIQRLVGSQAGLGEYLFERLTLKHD
# 5 dpf larval zebrafish [2] = assay: Zebrafish behavioral model of anesthesia, elicited movement (EM, tap stimulus); format: in vivo
# Protocol: (§1) Figure 2 Screening of PFAL compounds for antagonism of anesthesia. PFAL compounds were screened in 5 dpf zebrafish for their ability to antagonize the anesthetic effects of propofol (panels a, b, c and d) as well as sevoflurane and isoflurane (panels e and f). Each dot represents the data collected from one fish. Spontaneous movement (SM) is the distance of spontaneous swimming in a 4 min period, and elicited movement (EM) is distance moved in 1 s after exposure to a tap stimulus. Both measures were scaled to same-day DMSO controls. […] Mean and 95% CI are shown for each data set. Statistical comparison with both DMSO (D) only (black asterisks) and anesthetic control (Ctrl, gray asterisks) groups are shown. Note that each DMSO comparison is to the DMSO only control (sample on the furthest left of each graph, and the anesthetic control comparisons are made within each anesthetic grouping as indicated by the bars along the x-axis of each graph. ns: P > 0.05, *: P ≤ 0.05, **: P ≤ 0.01, ***: P ≤ 0.001, ****: P ≤ 0.0001).
# (§2) Behavioral experiments (screening, EC50 curves) were performed as previously reported. Antagonism after induction was conducted in a similar manner with different timepoints and solution changes as indicated. The DanioVision Observation Chamber (Noldus) and Ethovision XT16 software were used to track and record (1280 × 960 resolution at 25 frames per second) larval zebrafish (5 dpf) movement in glass 96-well plates (Zissner North America 3,600,500). All experiments were performed at 28 °C with the DanioVision Temperature Control Unit. Zebrafish were allowed to equilibrate in E3 and 2% DMSO (with or without drug) for 10 min before being placed in the observation chamber for 22 min of recording. Two different endpoints were used to assess depth of anesthesia: spontaneous movement (SM) and elicited movement (EM). In these measures, fish movement was considered to be non-anesthetized. During each observation, fish were given time to acclimate to the chamber, and minutes 15–19 of the recording were used for analysis of SM. An EM response using the Daniovision tapping device (8 out of 8 intensity, movement response measured for 1 s after stimulus) was also measured at the end of the SM observation period. All recordings were scrutinized by a blind observer for technical errors in tracking to ensure accuracy of zebrafish detection and inaccurate tracking was excluded from further analysis. Toxicity was measured in separate experiments by exposing larvae to compounds for 30 min, transferring to fresh E3, and then observing mortality after exposure. […]
# [3] = test system: propofol-sensitive GABAAR; set-up: method as in PMID 25799399; settings: cited from earlier work
# tadpoles = test system: tadpoles; set-up: method as in PMID 25799399; settings: cited from earlier work
# [4] = biological target: T1, horse spleen apoferritin (HSAF); set-up: method as in doi:10.1055/s-0040-1707287; settings: cited from earlier work
# 5 dpf larval zebrafish [5] = assay: Zebrafish behavioral model of anesthesia, spontaneous movement (SM); format: in vivo
# Protocol: as §1, §2
# 5 dpf zebrafish = assay: Antagonism of anesthesia after induction (sequential addition); format: in vivo; settings: propofol 3 μM for 10 min, then propofol 3 μM plus 30 μM compound
# Protocol: In the above studies, the anesthetic and PFAL compounds were co-administered to the fish simultaneously.
# Figure 5 Further Characterization of Propofol Antagonism with Compounds 9 and 10. a and b 5 dpf zebrafish (n = 36) were first anesthetized with 3 μM propofol and then 30 μM of either compound 9 or 10 was added. Between minutes 5 and 10 there is a small gap in the data during which the propofol solution was removed and a solution containing propofol and PFAL compound was added. […] The mean and 95% CI is shown for each data point in all panels.
# Behavioral experiments (screening, EC50 curves) were performed as previously reported. Antagonism after induction was conducted in a similar manner with different timepoints and solution changes as indicated. The DanioVision Observation Chamber (Noldus) and Ethovision XT16 software were used to track and record (1280 × 960 resolution at 25 frames per second) larval zebrafish (5 dpf) movement in glass 96-well plates (Zissner North America 3,600,500). […] An EM response using the Daniovision tapping device (8 out of 8 intensity, movement response measured for 1 s after stimulus) was also measured at the end of the SM observation period. […] Toxicity was measured in separate experiments by exposing larvae to compounds for 30 min, transferring to fresh E3, and then observing mortality after exposure.
# zebrafish = test system: zebrafish; set-up: method as in PMID 33355437; settings: cited from earlier work
# [6] = PFAL compound alone at 10 and 30 μM, versus DMSO control
smiles,measurement,setting,value
"CC(C)c1cccc(C(C)C)c1F [Compound 9, 1,3-diisopropyl-2-fluorobenzene]",Inhibition of 1-AMA binding to HSAF,"[1]; 15 μM 1-AMA, 15 μM HSAF dimer, ligand 1 to 125 μM",most potent inhibitors of 1-AMA binding
same,Shape of IC50 curve for 1-AMA displacement,[1]; Fig. 6b,incomplete inhibition of 1-AMA binding
same,"Elicited movement (EM), compound alone",5 dpf larval zebrafish [2]; [6],increased EM
same,Schild-type analysis with EM,"5 dpf larval zebrafish [2]; propofol EC50 curves (EM) at various concentrations of the compound, Fig. S6",no such relationship of antagonism was observed
same,Modulation of a propofol-sensitive GABAAR,[3],no significant modulation
same,Antagonism of propofol in tadpoles,tadpoles,antagonize propofol
same,Binding to the anesthetic site of HSAF,[4],binds to this site
same,Antagonism of propofol via SM,"5 dpf larval zebrafish [5]; 30 μM PFAL compound co-administered with propofol (0.3, 1, 5 μM), screen",showed antagonism of propofol; also recorded: statistically significant antagonism
same,Antagonism of propofol via SM at 5 μM propofol,"5 dpf larval zebrafish [5]; 30 μM PFAL compound, propofol 5 μM",antagonized propofol
same,IC50,"5 dpf larval zebrafish [5]; Danio rerio, 120 h, 5 dpf zebrafish exposed to 3 μM propofol, Fig. 5d, read-out: IC50 (antagonism of propofol)",37.5 µM
same,"Spontaneous movement (SM), compound alone",5 dpf larval zebrafish [5]; [6],increased SM
same,"Increase of propofol EC50 versus propofol alone, spontaneous movement","5 dpf larval zebrafish [5]; propofol plus 30 μM compound, Fig. 4a",~ tenfold
same,Reversal of established propofol immobility,5 dpf zebrafish,rapid reversal of propofol immobility
same,Antagonism of propofol in zebrafish,zebrafish,antagonize propofol
